This is an account of results in patent US7799810B2, “Organic compounds” (Novartis AG, priority 2006, dated 2010).

In experiment [1] the test system is spleen cells from CBA and BALB/c mice. Nature of the experiment: Mixed lymphocyte reaction (two-way MLR). It is filed as cell-based. The following applies: Mus musculus, four days of incubation, 3H-thymidine incorporation. As for the experimental part: Mixed lymphocyte reaction (MLR). A two-way MLR is performed according to standard procedures. Briefly, spleen cells from CBA and BALB/c mice (1.6×10^5 cells from each strain per well in flat bottom tissue culture microtiter plates, 3.2×10^5 in total) are incubated in RPMI medium containing 10% fetal calf serum, 100 U/ml penicillin, 100 μg/ml streptomycin, 50 μM 2-mercaptoethanol and serially diluted compounds to be tested. After four days of incubation 1 μCi [^3H] thymidine is added to the cultures. Cells are harvested after an additional five-hour incubation period, and incorporated ^3H-thymidine is determined according to standard procedures. […] In this assay, the compounds of formula I have ICsovalues ranging from 20 nM to 200 nM.

Another experiment has as its target T1, Human PI3K delta (Homo sapiens, UniProt O00329).
T1 construct: fused on or other part: CaaX box (isoprenylation / membrane-targeting signal) added at the C-terminal end
T1 sequence (O00329 1-1044): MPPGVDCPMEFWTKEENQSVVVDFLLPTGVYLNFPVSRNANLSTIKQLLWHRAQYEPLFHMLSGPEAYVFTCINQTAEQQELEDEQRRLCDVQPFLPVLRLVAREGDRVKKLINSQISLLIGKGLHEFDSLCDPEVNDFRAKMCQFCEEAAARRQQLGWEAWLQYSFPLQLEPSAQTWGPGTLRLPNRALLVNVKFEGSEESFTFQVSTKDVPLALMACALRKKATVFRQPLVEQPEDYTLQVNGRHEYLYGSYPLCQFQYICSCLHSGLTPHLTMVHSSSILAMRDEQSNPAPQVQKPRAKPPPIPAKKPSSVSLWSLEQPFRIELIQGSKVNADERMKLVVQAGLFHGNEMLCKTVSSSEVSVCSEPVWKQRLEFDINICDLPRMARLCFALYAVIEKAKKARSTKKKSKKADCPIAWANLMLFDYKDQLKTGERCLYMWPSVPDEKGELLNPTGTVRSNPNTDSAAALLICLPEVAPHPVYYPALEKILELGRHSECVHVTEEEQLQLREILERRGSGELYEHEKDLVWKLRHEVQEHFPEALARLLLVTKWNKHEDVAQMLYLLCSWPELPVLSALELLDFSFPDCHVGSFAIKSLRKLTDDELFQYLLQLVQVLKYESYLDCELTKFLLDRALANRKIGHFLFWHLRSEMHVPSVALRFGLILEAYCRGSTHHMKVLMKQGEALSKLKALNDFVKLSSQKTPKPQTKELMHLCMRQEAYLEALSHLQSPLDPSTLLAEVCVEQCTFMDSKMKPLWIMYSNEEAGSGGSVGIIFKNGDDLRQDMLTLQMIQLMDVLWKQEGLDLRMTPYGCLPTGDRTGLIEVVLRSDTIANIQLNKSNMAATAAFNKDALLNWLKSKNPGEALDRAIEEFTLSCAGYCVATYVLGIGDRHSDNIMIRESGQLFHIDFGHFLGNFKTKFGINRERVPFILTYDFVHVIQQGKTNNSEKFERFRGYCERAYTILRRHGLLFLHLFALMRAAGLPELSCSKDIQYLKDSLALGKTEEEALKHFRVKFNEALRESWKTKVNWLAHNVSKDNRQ
The experiment can be described thus: Cellular PI3K delta assay (Akt phosphorylation in transfected Rat-1 cells). It is filed as cell-based. Particulars: Rat-1 cells transfected with human PI3K delta CaaX construct, phospho Akt ELISA; read-out: IC50 PI3K delta-dependent Akt phosphorylation. The source says:
Cellular PI3K delta assay. Rat-1 cells are transiently transfected with a human PI3K delta construct (pcDNA3 PIK3 delta containing a CaaX box at the C-terminal end) using the FUGENE transfection kit. The CaaX box signals for the attachment of an isoprenoid moiety which activates PI3K delta by targeting it to intracellular membranes/the plasma membrane. Subsequent, PI3K delta-dependent Akt phosphorylation is quantified in presence and absence of compounds to be tested using the phospho Akt ELISA kit from R&D Systems.

The test system of experiment [2] is spleen cells of nu/nu Balb/c mice. Nature of the experiment: B cell proliferation assay (anti-IgM stimulated spleen cells). It is filed as cell-based. Particulars: anti-mouse IgM 5 μg/ml, 3 days, [3H] thymidine incorporation. As for the experimental part: B cell proliferation assay. A spleen cell suspension of nu/nu Balb/c mice is prepared and adjusted to 2×10^6 cells/ml in complete Iscoves Medium followed by the addition of 10 μg/ml monoclonal anti-mouse IgM antibody (clone b-7-6). Compounds to be rested are dissolved in DMSO at 10 mM and diluted in complete Iscoves Medium. […] Plates are incubated for 3 days at 37° C. and 5% CO2. Cell proliferation is measured by incorporation of [^3H] thymidine following a 16 hours pulse.

For a further experiment, the system named is PI3K α, β or γ isoform. Nature of the experiment: Selectivity for the δ isoform by corresponding assay using the corresponding PI3K isoform. It is filed as biochemical. The following applies: δ versus α. How it is done: PI3K delta enzyme assay based on Scintillation Proximity Assay (SPA) technology. Human PI3K delta is expressed as a recombinant protein in insect cells. PI3K delta activity is assayed by measuring the phosphorylation of phosphatidylinositol (PI) using a scintillation proximity assay. Briefly, the kinase reaction is performed in a final volume of 50 μl/well. The final concentrations of ATP and PI in the assay are 5 μM and 6 μg/ml, respectively. The reaction is started by the addition of PI3K delta and terminated by the addition of 50 μl Wheatgerm agglutinin SPA beads after 90 minutes of incubation at room temperature.

Each structure is given as a SMILES string. pIC50: −log10 of the molar value.

As for `Cc1cc(NC(=O)CCNC(=O)Nc2nc(C)c(-c3ccc(-n4cccn4)cc3)s2)no1` [Example 2, N-(5-Methyl-isoxazol-3-yl)-3-{3-[4-methyl-5-(4-pyrazol-1-yl-phenyl)-thiazol-2-yl]-ureido}-propionamide], the pIC50 in experiment [1] is 7.59; at Human PI3K delta it was 7.66; in experiment [2] it was 7.82. Besides, in the experiment with PI3K α, β or γ isoform, the “selectivity for the δ isoform over the α, β or γ isoform (ratio of IC50 values)” value is “at least 10 fold”.
